How the values were obtained:
[1] = tested on: SKRC52 human renal tumor xenograft; assay: Whole body fluorescence imaging of SKRC52 human renal tumor xenograft bearing mouse (IVIS imager); type: in vivo; settings: 10 nmol
Description: SKRC52 human renal tumor xenograft bearing mouse was injected with 10 nmol of 54 and imaged with IVIS imager (ex=745 nm, em=ICG, exposure time=1 s) at different time intervals.
SKRC52 human renal tumor xenograft bearing mouse was injected with 10 nmol of 55 and imaged with IVIS imager (ex=745 nm, em=ICG, exposure time=1 s) at different time intervals.
SKRC52 human renal tumor xenograft bearing mouse was injected with 10 nmol of 60 and imaged with IVIS imager (ex=745 nm, em=ICG, exposure time=[…]) at different time intervals.
SKRC52 human renal tumor xenograft bearing mouse was injected with 10 nmol of 61 and imaged with IVIS imager (ex=745 nm, em=ICG, exposure time=[…]) at different time intervals.
SKRC52 human renal tumor xenograft bearing mouse was injected with 10 nmol of 62 and imaged with IVIS imager (ex=745 nm, em=ICG, exposure time=1 s) at different time intervals.
SKRC52 human renal tumor xenograft bearing mouse was injected with 10 nmol of 65 and imaged with IVIS imager (ex=745 nm, em=ICG, exposure time=1 s) at different time intervals.
SKRC52 human renal tumor xenograft bearing mouse was injected with 10 nmol of 69 and imaged with IVIS imager (ex=745 nm, em=ICG, exposure time=1 s) at different time intervals.
SKRC52 human renal tumor xenograft bearing mouse was injected with 10 nmol of 70 and imaged with IVIS imager (ex=745 nm, em=ICG, exposure time=1 s) at different time intervals.
SKRC52 human renal tumor xenograft bearing mouse was injected with 10 nmol 72 and imaged with IVIS imager (ex=745 nm, em=ICG, exposure time=1 s) at different time intervals
SKRC52 human renal tumor xenograft bearing mouse was injected with 10 nmol of 76 and imaged with IVIS imager (ex=745 nm, em=ICG, exposure time=1 s) at different time intervals
SKRC52 human renal tumor xenograft bearing mouse was injected with 10 nmol of 77 and imaged with IVIS imager (ex=745 nm, em=ICG, exposure time=1 s) at different time intervals
SKRC52 human renal tumor xenograft bearing mouse was injected with 10 nmol of 80 and imaged with IVIS imager (ex=745 nm, em=ICG, exposure time=1 s) at different time intervals
SKRC52 human renal tumor xenograft bearing mouse was injected with 10 nmol of 81 and imaged with IVIS imager (ex=745 nm, em=ICG, exposure time=1 s) at different time intervals
SKRC52 human renal tumor xenograft bearing mouse was injected with 10 nmol of 85 and imaged with IVIS imager (ex=745 nm, em=ICG, exposure time=1 s) at different time intervals
SKRC52 human renal tumor xenograft bearing mouse was injected with 10 nmol of 86 and imaged with IVIS imager (ex=745 nm, em=ICG, exposure time=1 s) at different time intervals
SKRC52 human renal tumor xenograft bearing mouse was injected with 10 nmol of 87 and imaged with IVIS imager (ex=745 nm, em=ICG, exposure time=1 s) at different time intervals
SKRC52 human renal tumor xenograft bearing mouse was injected with 10 nmol of 88 and imaged with IVIS imager (ex=745 nm, em=ICG, exposure time=1 s) at different time intervals
SKRC52 human renal tumor xenograft bearing mouse was injected with 10 nmol of 89 and imaged with IVIS imager (ex=745 nm, em=ICG, exposure time=1 s) at different time intervals
SKRC52 human renal tumor xenograft bearing mouse was injected with 10 nmol of 90 and imaged with IVIS imager (ex=745 nm, em=ICG, exposure time=1 s) at different time intervals
SKRC52 human renal tumor xenograft bearing mouse was injected with 10 nmol of 93 and imaged with IVIS imager (ex=745 nm, em=ICG, exposure time=1 s) at different time intervals
SKRC52 human renal tumor xenograft bearing mouse was injected with 10 nmol of 95 and imaged with IVIS imager (ex=745 nm, em=ICG, exposure time=1 s) at different time intervals
SKRC52 human renal tumor xenograft bearing mouse was injected with 10 nmol of 99 and imaged with IVIS imager (ex=745 nm, em=ICG, exposure time=1 s) at different time intervals […]

[2] = in the presence and absence of light; cited from earlier work
[3] = imaged at different time intervals
[4] = within 2-24 hours after administering to the animal

| Structure (SMILES) | tumor-to-background ratio (TBR) [1, 3] | tumor-to-skin ratio [1, 3] | accumulation retained in the tumor (fluorescence over 24 hours) [1] | whole-body imaging data [1, 4] | other results |
| --- | --- | --- | --- | --- | --- |
| CC1(C)C(/C=C/C2=C(Oc3ccc(C[C@H](NC(=O)CCOCCOCCNC(=O)CCS(=O)(=O)c4c(F)c(F)c(S(N)(=O)=O)c(F)c4NC4CCCCC4)C(=O)O)cc3)C(=C/C=C3/N(CCCCS(=O)(=O)O)c4ccc(S(=O)(=O)O)cc4C3(C)C)/CCC2)=[N+](CCCCS(=O)(=O)[O-])c2ccc(S(=O)(=O)O)cc21 [Compound 60] | excellent | excellent | very high accumulation | very good | – |
| CC1(C)C(/C=C/C2=C(Oc3ccc(C[C@H](NC(=O)CCS(=O)(=O)c4c(F)c(F)c(S(N)(=O)=O)c(F)c4NC4CCCCCCC4)C(=O)O)cc3)C(=C/C=C3/N(CCCCS(=O)(=O)O)c4ccc(S(=O)(=O)O)cc4C3(C)C)/CCC2)=[N+](CCCCS(=O)(=O)[O-])c2ccc(S(=O)(=O)O)cc21 [Compound 62] | excellent | excellent | very high accumulation | very good | – |
| CC1(C)C(/C=C/C2=C(Oc3ccc(C[C@H](NC(=O)CCOCCOCCNC(=O)CCS(=O)(=O)c4c(F)c(F)c(S(N)(=O)=O)c(F)c4NC4CCC(F)(F)CC4)C(=O)O)cc3)C(=C/C=C3/N(CCCCS(=O)(=O)O)c4ccc(S(=O)(=O)O)cc4C3(C)C)/CCC2)=[N+](CCCCS(=O)(=O)[O-])c2ccc(S(=O)(=O)O)cc21 [Compound 72] | excellent | excellent | very high accumulation | very good | – |
| CC(C)C[C@H](Nc1c(F)c(S(N)(=O)=O)c(F)c(F)c1S(=O)(=O)CCC(=O)NCCOCCOCCC(=O)N[C@@H](Cc1ccc(OC2=C(/C=C/C3=[N+](CCCCS(=O)(=O)[O-])c4ccc(S(=O)(=O)O)cc4C3(C)C)CCC/C2=C\C=C2\N(CCCCS(=O)(=O)O)c3ccc(S(=O)(=O)O)cc3C2(C)C)cc1)C(=O)O)C(=O)OCc1ccccc1 [Compound 76] | excellent | excellent | very high accumulation | very good | – |
| CC(C)C[C@H](Nc1c(F)c(S(N)(=O)=O)c(F)c(F)c1S(=O)(=O)CCC(=O)NCCOCCOCCC(=O)N[C@@H](Cc1ccc(OC2=C(/C=C/C3=[N+](CCCCS(=O)(=O)[O-])c4ccc(S(=O)(=O)O)cc4C3(C)C)CCC/C2=C\C=C2\N(CCCCS(=O)(=O)O)c3ccc(S(=O)(=O)O)cc3C2(C)C)cc1)C(=O)O)C(=O)O [Compound 77] | excellent | excellent | very high accumulation | very good | – |
| CC1(C)C(/C=C/C2=C(Oc3ccc(C[C@H](NC(=O)CCOCCOCCNC(=O)CCS(=O)(=O)c4ccc(S(N)(=O)=O)cc4NC4CCCCCCC4)C(=O)O)cc3)C(=C/C=C3/N(CCCCS(=O)(=O)O)c4ccc(S(=O)(=O)O)cc4C3(C)C)/CCC2)=[N+](CCCCS(=O)(=O)[O-])c2ccc(S(=O)(=O)O)cc21 [Compound 85] | excellent | excellent | very high accumulation | very good | tumor fluorescence intensity and tumor-to-background ratio compared to the compound 61 [1]: less |
| CC1(C)C(/C=C/C2=C(Oc3ccc(C[C@H](NC(=O)CCOCCOCCNc4c(F)c(S(N)(=O)=O)c(F)c(F)c4S(=O)(=O)CCO)C(=O)O)cc3)C(=C/C=C3/N(CCCCS(=O)(=O)O)c4ccc(S(=O)(=O)O)cc4C3(C)C)/CCC2)=[N+](CCCCS(=O)(=O)[O-])c2ccc(S(=O)(=O)O)cc21 [Compound 86] | – | – | – | very good | brightness compared to 60 and 61 [1]: less brighter |
| CC1(C)C(=CC=C2CCCC(C=CC3=[N+](CCCCS(=O)(=O)[O-])c4ccc(S(=O)(=O)O)cc4C3(C)C)=C2Oc2ccc(CC(NC(=O)CCOCCOCCNC(=O)CCS(=O)(=O)c3c(F)c(F)c(S(N)(=O)=O)c(F)c3NC(c3ccccc3)c3ccccc3)C(=O)O)cc2)N(CCCCS(=O)(=O)O)c2ccc(S(=O)(=O)O)cc21 (stereo not shown) [Compound 88] | – | – | – | – | whole-body imaging data ([1]; after 8 hours of administering): good; tumor-to-background ratio (TBR) ([1]; at 24 hour time point): excellent; tumor-to-skin ratio ([1]; at 24 hour time point): excellent |
| CN(C)C(N(c1c(F)c(S(N)(=O)=O)c(F)c(F)c1S(=O)(=O)CCC(=O)NCCOCCOCCC(=O)N[C@@H](Cc1ccc(OC2=C(/C=C/C3=[N+](CCCCS(=O)(=O)O)c4ccc(S(=O)(=O)O)cc4C3(C)C)CCC/C2=C\C=C2\N(CCCCS(=O)(=O)O)c3ccc(S(=O)(=O)O)cc3C2(C)C)cc1)C(=O)O)C1CCCCCCC1)=[N+](C)C [Compound 104] | excellent | excellent | very high accumulation | good | – |
| CC1(C)C(/C=C/C=C/C=C/C=C2\N(CCCCS(=O)(=O)[O-])c3ccc4ccccc4c3C2(C)C)=[N+](CCCCS(=O)(=O)[O-])c2ccc3ccccc3c21.[Na+] [IR125] | – | – | – | – | in vitro cytotoxicity [2]: significant values of cytotoxicity |
| CN1/C(=C/C=C2\CCCC(/C=C/C3=[N+](C)c4ccc5ccccc5c4C3(C)C)=C2Cl)C(C)(C)c2c1ccc1ccccc21.Cc1ccc(S(=O)(=O)[O-])cc1 [IR813] | – | – | – | – | in vitro cytotoxicity [2]: significant values of cytotoxicity |
| CC1(C)C(=CC=C2CCCC(C=CC3=[N+](CCCCS(=O)(=O)[O-])c4ccc5ccccc5c4C3(C)C)=C2Cl)N(CCCCS(=O)(=O)[O-])c2ccc3ccccc3c21.[Na+] [IR820] | – | – | – | – | in vitro cytotoxicity [2]: no major cytotoxic effects |

Reference: US11555821B2, “CA IX-NIR dyes and their uses” (On Target Laboratories, Inc., priority 2016, dated 2023)
